Experimental findings from patent US12383512B2, “Cannabidiol-type cannabinoid compound” (Jazz Pharmaceuticals Research UK LImited, priority 2019, dated 2025) are described below.

In data set [1] the test system is seizure threshold current for tonic hind limb extensor convulsions in mice. In words: Maximal electroshock seizure threshold (MEST) test in the mouse. The conditions noted are these: for % change from vehicle (CC50) / CC50 ± SEM: MEST test. The method, then: The efficacy of 6-OH CBD was tested in a mouse model of generalised seizure, the maximal electroshock seizure threshold (MEST) test.
In the MEST test the ability of a drug to alter the seizure threshold current required to induce hind limb tonic extensor convulsions is measured according to an “up and down” method of shock titration (Kimball et al., 1957). An increase in seizure threshold is indicative of anti-convulsant effect.
The ability of a test compound to alter the stimulus intensity, expressed as current (mA), required to induce the presence of tonic hind limb extensor convulsions, is assessed in the MEST.
Naïve mice were acclimatised to the procedure room in their home cages for up to 7 days, with food and water available ad libitum.
All animals were weighed at the beginning of the study and randomly assigned to treatment groups based on a mean distribution of body weight across groups.
The first animal within a treatment group was given a shock at the expected or estimated CC50 current. For subsequent animals, the current was lowered or raised depending on the convulsions outcome from the preceding animal.
Data generated from each treatment group were used to calculate the CC50±SEM values for the treatment group.
Vehicle: (5% ethanol, 5% solutol, 90% Saline) was prepared as follows: 2 mL of ethanol, 2 mL of solutol were warmed to 60° C., in 36 mL of saline (1:1:18).
The test compound, alpha 6-OH CBD was prepared according to the method described in Example 1. 6-OH CBD was administered at 3, 10 and 30 mg/kg (i.p.) in a 1:1:18 ethanol:solutol:0.9% saline formulation.
6-OH CBD effects were also calculated as percentage change in CC50 from the vehicle control group.
Significant difference between drug-treated animals and controls were assessed according to Litchfield and Wilcoxon (1949).

The subject of data set [2] is tonic hind limb extensor seizure following corneally delivered electroshock in mice. As to the kind of experiment: Supramaximal electroshock seizure (MES) test in the mouse. Format: in vivo. The method, then:
The MES test is a very stringent model in which mice receive a predetermined high-level electrical stimulus of sufficient intensity to reliably produce tonic hindlimb extensor seizures in 100% of control animals. As such the MES test is a rigorous evaluation of anticonvulsant activity (Swinyard, 1985).
Animals were dosed i.p. according to treatment group. […]
In addition, a dose of 100 mg/kg CBD was given at 10 ml/kg i.p. at 120 minutes pre-treatment time to assess the effect of the drug over a longer time course.
The positive control valproate was used at 250 mg/kg (10 ml/kg i.p. 30 min pre-treatment time).
Induction of seizure is measured as an all-or-nothing effect scored as either present (+) or absent (0) for each animal.
Data was collected by an observer unaware of the treatment for each animal and was expressed as the number of +'s or 0's for each treatment group.
The percentage inhibition of relevant vehicle treated group (the protection relative to vehicle treated controls) was then generated.
Significant differences between individual treatment groups and vehicle-treated groups were assessed using 2-tailed Fisher's Exact Probability test (p<0.05 considered significant).

[3] abbreviates: 3 mg/kg i.p., pre-treatment time 30 min.
Where [4] appears, read: 10 mg/kg i.p., pre-treatment time 15 min.
The mark [5] stands for this setting: 30 mg/kg i.p., pre-treatment time 60 min.

With `C=C(C)[C@@H]1CC(O)C(C)=C[C@H]1c1c(O)cc(CCCCC)cc1O` (stereo partly drawn) [6-OH CBD, Alpha 6-hydroxy cannabidiol], the “effect on MEST in words” value in data set [1] (3, 10 and 30 mg/kg i.p.) is on record as “dose-related increase in MEST”. For the same molecule, the “% change from vehicle (CC50)” value in data set [1] (setting [3]) was 25%; in data set [1] (setting [4]) it was 135%; in data set [1] (setting [5]) it was 327%. The “CC50 ± SEM” value in data set [1] (setting [3]) was determined as 30.0 ± 1.1 mA; in data set [1] (setting [4]), 56.5 ± 2.1 mA; in data set [1] (setting [5]), 102.5 ± 2.2 mA. Moreover, the “% change from vehicle” value is given as 0% in data set [2] (3 mg/kg i.p., pre-treatment time 60 min); 100% in data set [2] (setting [5]); 100% in data set [2] (100 mg/kg i.p., pre-treatment time 60 min); 100% in data set [2] (100 mg/kg i.p., pre-treatment time 120 min); 100% in data set [2] (200 mg/kg i.p., pre-treatment time 60 min). Moreover, the “seizure outcome in words” value is on record as “ineffective” in data set [2] (3 mg/kg i.p., text says 120 minutes before the test); “enabled all mice within the group to withstand seizures” in data set [2] (30 mg/kg i.p., text says 120 minutes before the test); “statistically significant reduction of seizures” in data set [2] (100 mg/kg given 120 minutes before); “enabled all mice within the group to withstand seizures” in data set [2] (100 mg/kg i.p., text says 120 minutes before the test); “enabled all mice within the group to withstand seizures” in data set [2] (200 mg/kg i.p., text says 120 minutes before the test).
